Data taken from patent publication US20040229268A1, “Method and kit for identifying antibiotic-resistant microorganisms” (priority 2003, published 2004).

Key:
Format in all cases: binding, S. aureus
[1] = tested on: mecA gene; rRNA (pan-bacterial probe); test: Hybridization Protection Assay (HPA), AE-labeled probes, thermally lysed specimens (Examples 1-2)
Protocol: The specimens were lysed by suspending approximately 5×10^8 cells in a lysis buffer (0.1% lithium lauryl sulfate, 1 mM EDTA, 20 mM lithium succinate, pH 5.5) and then incubating in a heat block set at 110° C. for 20 minutes. Thermal lysis of a variety of other specimens was effected under a range of temperature (heat block set at about 95° C. to 110° C.) and time (about 10 to 25 minutes) conditions. The lysed samples were tested for the presence of target sequences complementary to the probes using a Hybridization Protection Assay (HPA) as described by Arnold et al., in Clin. Chem. 35:1588(1989) and U.S. Pat. No. 6,004,745. 50 μl of the heat-treated suspension was incubated with an equal volume of AE-labeled probe in 2× hybridization buffer (1.2 M LiCl, 2% lithium lauryl sulfate, 20 mM EDTA, 20 mM EGTA, 100 mM lithium succinate, pH 5.5) at 60° C. for 30 minutes. The pH of succinate solutions may range from about 4.5 to about 5.5, although it is desirable to use a pH of 4.8 for succinate buffering. 300 μl of a selection reagent (0.6 M borate buffered solution, pH 8.5; note, pH may vary from 8.0 to 9.0) was added, the mixture was heated at 60° C. for 10 minutes to effect differential hydrolysis, and the samples were read in a GEN-PROBE® LEADER® luminometer using sequential 300 μl injections of 0.1% H2O2 and 1 N NaOH solutions (see Arnold et al, supra; GEN-PROBE® Detection Reagent Kit, Cat. No. 1791 may be used).
Procedures similar to those described in Example 1 were conducted using a large number of bacterial samples, except that parallel hybridization reactions employed a pan-bacterial probe which targeted rRNA (Probe Reagent 1, GEN-PROBE® MTC-NI Kit, catalog no. 4573). […] The pan-bacterial probe reagent served as a positive control for lysis of all of the specimens. In this procedure each sample was tested against a panel of the three probes contained in separate hybridization reactions. Aliquots of the samples tested using the pan-bacterial probe reagent were diluted 1:3000 prior to performing luminometry so that results fell within the linear range of the detector. The signals indicated lysis and detection of ribosomal nucleic acids in each of the samples. These values depended on the number of bacterial cells in the specimen, as well as on the extent of cell lysis and the release or accessibility of ribosomal nucleic acids from the cells to be detected by the pan-bacterial probe.

[2] = tested on: rRNA/rDNA (pan-bacterial probe); mecA target sequence; test: HPA after base treatment of specimen or synthetic target (Example 3)
Protocol: The effect of base treatment on a S. aureus specimen (#102) was evaluated using the pan-bacterial probe reagent. A pelleted sample of the specimen was suspended in 120 μl of lysis buffer and lysed by treatment for 20 minutes in a heat block set at 110° C. A 50 μl aliquot of the lysed specimen was treated with 50 μl of a 0.4 N LiOH solution at 55° C. for 10 minutes, and then neutralized with the addition of 50 μl of 0.4 N HCl and buffered with 50 μl of a 1× hybridization buffer (0.6 M LiCl, 1% lithium lauryl sulfate, 10 mM EDTA, 10 mM EGTA, 50 mM lithium succinate, pH 5.5). The treated sample was hybridized with the AE-labeled pan-bacterial probe by incubating at 55° C. for 1 hour. An HPA assay to detect specific probe hybrids was carried out using standard procedures that will be familiar to those having an ordinary level of skill in the art. A control sample consisted of 50 μl of the lysed specimen and volumes of hydrolysis, neutralization and buffered solutions equivalent to those of the treated sample.
For example, the effect of base treatment with 0.8 N LiOH for 10 minutes at 55° C. was assessed using AE-probe 1. For these treatments, an equal volume of 0.8 N LiOH was added to the sample, and the reaction mixtures were neutralized with the addition of an equivalent volume of 0.8 N HCl prior to buffering and assaying by HPA. 300 μl aliquots of each reaction mixture were read in the luminometer. These procedures employed a single-stranded DNA oligonucleotide having the same sequence that was present in the target bacteria, and that was fully complementary to the hybridization probe undergoing testing, as synthetic target.

[3] = tested on: mecA gene; ribosomal nucleic acids; test: HPA, base treatment with and without thermal lysis (Example 4)
Protocol: The effect of base treatment with and without the heat treatment in lysis buffer was evaluated using a S. aureus specimen (GP1217, ATCC #33591). In this procedure the sample was treated with 0.8 N LiOH and thermal lysis was conducted by heat treatment for 15 minutes. Other conditions were as described above. Probe 1 labeled with acridinium ester was used in this procedure.

Sequence: GGTATGTGGAAGTTAGATTGGGATCATAGCG (AE label, linker between 13 and 14, chemistry not fully specified; listed as Staphylococcus aureus) [Probe 1]
- AE-probe Average RLU ([1]; No Specimen): 431 RLU
- AE-probe Average RLU ([1]; S. aureus specimen #99, mecA PCR Pos): 2664 RLU
- AE-probe Average RLU ([1]; S. aureus specimen #100, mecA PCR Neg): 590 RLU
- AE-Probe Signal (RLU) ([1]; Table 2, Negative Control): 1817 RLU
- AE-Probe Signal (RLU) ([1]; Table 2, specimen 10, mecA PCR Neg, pan-bacterial diluted 1:3000 prior to luminometry): 2918 RLU
- AE-Probe Signal (RLU) ([1]; Table 2, specimen 99, mecA PCR Pos, pan-bacterial diluted 1:3000 prior to luminometry): 5822 RLU
- AE-Probe Signal (RLU) ([1]; Table 2, specimen 100, mecA PCR Neg, pan-bacterial diluted 1:3000 prior to luminometry): 815 RLU
- AE-Probe Signal (RLU) ([1]; Table 2, specimen 101, mecA PCR Neg, pan-bacterial diluted 1:3000 prior to luminometry): 2768 RLU
- AE-Probe Signal (RLU) ([1]; Table 2, specimen 102, mecA PCR Pos, pan-bacterial diluted 1:3000 prior to luminometry): 5623 RLU
- AE-Probe Signal (RLU) ([1]; Table 2, specimen 103, mecA PCR Neg, pan-bacterial diluted 1:3000 prior to luminometry): 1097 RLU
- AE-Probe Signal (RLU) ([1]; Table 2, specimen 104, mecA PCR Neg, pan-bacterial diluted 1:3000 prior to luminometry): 959 RLU
- AE-Probe Signal (RLU) ([1]; Table 2, specimen 105, mecA PCR Neg, pan-bacterial diluted 1:3000 prior to luminometry): 1086 RLU
- AE-Probe Signal (RLU) ([1]; Table 2, specimen 106, mecA PCR Neg, pan-bacterial diluted 1:3000 prior to luminometry): 1327 RLU
- AE-Probe Signal (RLU) ([1]; Table 2, specimen 139, mecA PCR Pos, pan-bacterial diluted 1:3000 prior to luminometry): 5755 RLU
- AE-Probe Signal (RLU) ([1]; Table 2, specimen 140, mecA PCR Pos, pan-bacterial diluted 1:3000 prior to luminometry): 3143 RLU
- AE-Probe Signal (RLU) ([1]; Table 2, specimen 142, mecA PCR Pos, pan-bacterial diluted 1:3000 prior to luminometry): 6845 RLU
- AE-Probe Signal (RLU) ([1]; Table 2, specimen 145, mecA PCR Neg, pan-bacterial diluted 1:3000 prior to luminometry): 997 RLU
- AE-Probe Signal (RLU) ([1]; Table 2, specimen 148, mecA PCR Pos, pan-bacterial diluted 1:3000 prior to luminometry): 10483 RLU
- AE-Probe Signal (RLU) ([1]; Table 2, specimen 155, mecA PCR Neg, pan-bacterial diluted 1:3000 prior to luminometry): 730 RLU
- AE-Probe Signal (RLU) ([1]; Table 2, specimen 164, mecA PCR Neg, pan-bacterial diluted 1:3000 prior to luminometry): 1546 RLU
- AE-Probe Signal (RLU) ([1]; Table 2, specimen 178, mecA PCR Pos, pan-bacterial diluted 1:3000 prior to luminometry): 7772 RLU
- AE-Probe Signal (RLU) ([1]; Table 2, specimen 188, mecA PCR Pos, pan-bacterial diluted 1:3000 prior to luminometry): 11856 RLU
- AE-Probe Signal (RLU) ([1]; Table 2, specimen 270, mecA PCR Pos, pan-bacterial diluted 1:3000 prior to luminometry): 9256 RLU
- AE-Probe Signal (RLU) ([1]; Table 2, specimen 296, mecA PCR Pos, Lab Pos control, pan-bacterial diluted 1:3000 prior to luminometry): 5567 RLU
- AE-probe 1 Signal (RLU) ([2]; #148, Control (no base treatment)): 34677 RLU
- AE-probe 1 Signal (RLU) ([2]; #148, base treated (0.8 N LiOH, 10 minutes, 55° C.)): 42627 RLU
- AE-probe 1 Signal (RLU) ([2]; Synthetic target + #148, Control): 53367 RLU
- AE-probe 1 Signal (RLU) ([2]; Synthetic target + #148, base treated): 58565 RLU
- AE-probe 1 Signal (RLU) ([2]; Synthetic target, Control (no base treatment)): 22195 RLU
- AE-probe 1 Signal (RLU) ([2]; Synthetic target, base treated (0.8 N LiOH, 10 minutes, 55° C.)): 21283 RLU
- RLU ([3]; GP1217, Base treatment 30 minutes at 60° C.): 16016 RLU
- RLU ([3]; GP1217, Thermal lysis 15 minutes at 100° C. + Base treatment 15 minutes at 60° C.): 38017 RLU
- RLU ([3]; Table 5, Negative Control): 592 RLU
